The results in this text go back to ChEMBL document CHEMBL1909046, “DrugMatrix in vitro pharmacology data”.

Tested on in the first test: not listed separately
Nature of the test: DRUGMATRIX: ATPase, Na+/K+ enzyme inhibition (substrate: ATP). It is filed as tissue-based, Sus scrofa, Heart. To be noted: Not Active = under 50% inhibition at 10 µM.
Regarding `COc1ccc([C@@H]2Sc3ccccc3N(CCN(C)C)C(=O)[C@@H]2OC(C)=O)cc1` [DILTIAZEM], the IC50 entry is recorded as “Not Active” and the Ki entry is given as “Not Active”.

Regarding `NCC(=O)O` [GLYCINE], the IC50 result is on record as “Not Active” and the Ki result is given as “Not Active”.

For `O=C1CCc2cc(OCCCCc3nnnn3C3CCCCC3)ccc2N1` [CILOSTAZOL], the IC50 result is recorded as “Not Active” and the Ki result is on record as “Not Active”.

The target in the next test is C-C chemokine receptor type 2 (Homo sapiens, UniProt P41597). Note: in other assays of this panel Not Active means under 50% inhibition at 10 µM.
Sequence of C-C chemokine receptor type 2 (P41597 whole entry): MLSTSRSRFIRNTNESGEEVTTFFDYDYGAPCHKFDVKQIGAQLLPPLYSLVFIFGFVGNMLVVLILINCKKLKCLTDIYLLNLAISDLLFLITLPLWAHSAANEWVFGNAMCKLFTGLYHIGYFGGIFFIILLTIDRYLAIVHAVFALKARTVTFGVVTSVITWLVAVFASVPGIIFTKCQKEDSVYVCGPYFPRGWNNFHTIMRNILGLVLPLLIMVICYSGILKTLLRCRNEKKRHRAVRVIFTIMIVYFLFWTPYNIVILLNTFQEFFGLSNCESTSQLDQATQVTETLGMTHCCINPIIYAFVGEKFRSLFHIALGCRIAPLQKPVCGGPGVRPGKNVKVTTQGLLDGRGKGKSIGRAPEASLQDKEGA
Assay: not given
It is filed as cell membranes, CHO-K1, Membrane. Particulars: cho-k1.
Take `COc1ccc([C@@H]2Sc3ccccc3N(CCN(C)C)C(=O)[C@@H]2OC(C)=O)cc1` [DILTIAZEM]: the IC50 entry is “Not Active”.

On to `NCC(=O)O` [GLYCINE], for which the IC50 entry is listed as “Not Active”.

In the case of `O=C1CCc2cc(OCCCCc3nnnn3C3CCCCC3)ccc2N1` [CILOSTAZOL], the IC50 entry was “Not Active”.

Another test addresses T1, C-C chemokine receptor type 4 (Homo sapiens, UniProt P51679).
T1 sequence (P51679 whole entry): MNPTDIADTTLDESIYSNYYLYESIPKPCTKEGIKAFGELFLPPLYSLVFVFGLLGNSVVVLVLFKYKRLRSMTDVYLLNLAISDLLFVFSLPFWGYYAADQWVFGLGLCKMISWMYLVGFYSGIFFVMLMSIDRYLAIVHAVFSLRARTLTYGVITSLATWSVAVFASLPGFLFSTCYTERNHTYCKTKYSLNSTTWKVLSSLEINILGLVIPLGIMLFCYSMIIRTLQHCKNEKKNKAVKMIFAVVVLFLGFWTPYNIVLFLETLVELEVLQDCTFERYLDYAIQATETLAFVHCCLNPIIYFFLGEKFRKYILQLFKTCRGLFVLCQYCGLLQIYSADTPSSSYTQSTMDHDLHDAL
Assay: not given
It is filed as cell membranes, Membrane. To be noted: chem-1.
As for `COc1ccc([C@@H]2Sc3ccccc3N(CCN(C)C)C(=O)[C@@H]2OC(C)=O)cc1` [DILTIAZEM], the IC50 entry is “Not Active”.

On to `NCC(=O)O` [GLYCINE], for which the IC50 entry is on record as “Not Active”.

Turning to `O=C1CCc2cc(OCCCCc3nnnn3C3CCCCC3)ccc2N1` [CILOSTAZOL], the IC50 entry was “Not Active”.

Tested on in the next test: not listed separately
As to the kind of experiment: DRUGMATRIX: Glutamate, AMPA radioligand binding (ligand: [3H] AMPA). The class given is cell membranes, Rattus norvegicus, Wistar, Cerebral cortex, Membrane. Particulars: Not Active = under 50% inhibition at 10 µM.
Consider `COc1ccc([C@@H]2Sc3ccccc3N(CCN(C)C)C(=O)[C@@H]2OC(C)=O)cc1` [DILTIAZEM], for which the IC50 result is given as “Not Active” and the Ki entry is given as “Not Active”.

In the case of `NCC(=O)O` [GLYCINE], the IC50 result was “Not Active” and the Ki result was “Not Active”.

As for `O=C1CCc2cc(OCCCCc3nnnn3C3CCCCC3)ccc2N1` [CILOSTAZOL], the IC50 result is given as “Not Active” and the Ki result was “Not Active”.

Tested on in another test: not listed separately
Nature of the test: DRUGMATRIX: Glutamate, Kainate radioligand binding (ligand: [3H] Kainic acid). It is filed as cell membranes, Rattus norvegicus, Wistar, Brain, Membrane. To be noted: Not Active = under 50% inhibition at 10 µM.
As to `COc1ccc([C@@H]2Sc3ccccc3N(CCN(C)C)C(=O)[C@@H]2OC(C)=O)cc1` [DILTIAZEM], the IC50 entry is listed as “Not Active” and the Ki entry was “Not Active”.

Turning to `NCC(=O)O` [GLYCINE], the IC50 entry was “Not Active” and the Ki entry is “Not Active”.

For the molecule `O=C1CCc2cc(OCCCCc3nnnn3C3CCCCC3)ccc2N1` [CILOSTAZOL], the IC50 entry was “Not Active” and the Ki result is recorded as “Not Active”.

For a further test, the target named is Insulin receptor (Rattus norvegicus, UniProt P15127). Note: in other assays of this panel Not Active means under 50% inhibition at 10 µM.
Sequence of Insulin receptor (P15127 27-759 limits assumed): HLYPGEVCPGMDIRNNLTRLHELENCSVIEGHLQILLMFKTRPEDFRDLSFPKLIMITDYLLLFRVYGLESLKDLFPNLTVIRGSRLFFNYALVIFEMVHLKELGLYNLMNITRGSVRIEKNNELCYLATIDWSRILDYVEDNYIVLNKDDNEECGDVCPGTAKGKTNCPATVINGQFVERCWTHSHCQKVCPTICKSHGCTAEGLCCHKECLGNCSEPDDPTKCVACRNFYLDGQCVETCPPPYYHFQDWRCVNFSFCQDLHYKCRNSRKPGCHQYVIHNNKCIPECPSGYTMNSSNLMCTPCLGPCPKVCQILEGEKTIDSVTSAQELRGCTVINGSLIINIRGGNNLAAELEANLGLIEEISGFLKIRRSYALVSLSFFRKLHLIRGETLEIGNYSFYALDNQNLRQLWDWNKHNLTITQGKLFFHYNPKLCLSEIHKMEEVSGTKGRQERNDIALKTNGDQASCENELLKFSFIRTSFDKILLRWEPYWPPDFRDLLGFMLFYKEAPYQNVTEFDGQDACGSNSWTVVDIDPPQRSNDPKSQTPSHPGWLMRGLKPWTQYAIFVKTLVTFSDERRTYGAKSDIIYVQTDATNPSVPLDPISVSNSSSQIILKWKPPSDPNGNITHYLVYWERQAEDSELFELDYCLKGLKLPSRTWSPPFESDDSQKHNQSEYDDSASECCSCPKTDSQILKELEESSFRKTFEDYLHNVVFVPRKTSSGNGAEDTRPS
Sequence of Insulin receptor (P15127 764-1383 limits assumed): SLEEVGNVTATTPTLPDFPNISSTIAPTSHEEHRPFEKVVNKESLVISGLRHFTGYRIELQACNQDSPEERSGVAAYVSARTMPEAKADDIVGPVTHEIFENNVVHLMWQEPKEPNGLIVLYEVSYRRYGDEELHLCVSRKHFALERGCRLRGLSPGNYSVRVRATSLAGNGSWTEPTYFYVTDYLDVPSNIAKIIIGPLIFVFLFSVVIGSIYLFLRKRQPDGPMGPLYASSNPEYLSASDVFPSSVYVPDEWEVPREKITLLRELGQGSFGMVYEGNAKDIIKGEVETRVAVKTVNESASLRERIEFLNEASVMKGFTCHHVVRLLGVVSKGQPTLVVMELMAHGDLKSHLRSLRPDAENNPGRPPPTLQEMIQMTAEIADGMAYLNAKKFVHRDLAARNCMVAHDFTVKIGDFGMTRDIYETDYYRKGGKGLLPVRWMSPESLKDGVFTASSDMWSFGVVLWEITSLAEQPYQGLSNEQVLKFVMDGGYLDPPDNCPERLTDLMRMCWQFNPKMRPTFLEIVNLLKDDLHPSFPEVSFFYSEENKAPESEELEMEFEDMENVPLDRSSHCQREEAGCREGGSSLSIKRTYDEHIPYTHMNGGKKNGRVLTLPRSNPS
Assay: not given
It is filed as cell membranes, Wistar, Liver, Membrane.
Settings: not given
Consider `COc1ccc([C@@H]2Sc3ccccc3N(CCN(C)C)C(=O)[C@@H]2OC(C)=O)cc1` [DILTIAZEM], for which the IC50 entry is listed as “Not Active”.

Take `NCC(=O)O` [GLYCINE]: the IC50 result is reported as “Not Active”.

Regarding `O=C1CCc2cc(OCCCCc3nnnn3C3CCCCC3)ccc2N1` [CILOSTAZOL], the IC50 entry is “Not Active”.

A further test concerns the target T2, Leukotriene C4 synthase (Cavia porcellus, UniProt A6XA80).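 Note: enzyme inhibition assay of leukotriene C4 synthase, using LTA4 as the substrate; in other assays of this panel Not Active means under 50% inhibition at 10 µM.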
T2 sequence (A6XA80 whole entry): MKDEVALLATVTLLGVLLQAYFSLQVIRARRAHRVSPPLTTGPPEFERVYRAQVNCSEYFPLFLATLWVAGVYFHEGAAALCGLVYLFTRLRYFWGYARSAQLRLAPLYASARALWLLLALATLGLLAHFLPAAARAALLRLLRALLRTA
As to the kind of experiment: biochemical. The class given is tissue-based, Lung.
Settings: not given
`COc1ccc([C@@H]2Sc3ccccc3N(CCN(C)C)C(=O)[C@@H]2OC(C)=O)cc1` [DILTIAZEM]: the IC50 entry is listed as “Not Active”.

Consider `NCC(=O)O` [GLYCINE], for which the IC50 entry is “Not Active”.

Take `O=C1CCc2cc(OCCCCc3nnnn3C3CCCCC3)ccc2N1` [CILOSTAZOL]: the IC50 result is “Not Active”.

For a further test, the target named is T3, Neuropeptide Y receptor type 1 (Homo sapiens, UniProt P25929). Note: in other assays of this panel Not Active means under 50% inhibition at 10 µM.
T3 sequence (P25929 whole entry): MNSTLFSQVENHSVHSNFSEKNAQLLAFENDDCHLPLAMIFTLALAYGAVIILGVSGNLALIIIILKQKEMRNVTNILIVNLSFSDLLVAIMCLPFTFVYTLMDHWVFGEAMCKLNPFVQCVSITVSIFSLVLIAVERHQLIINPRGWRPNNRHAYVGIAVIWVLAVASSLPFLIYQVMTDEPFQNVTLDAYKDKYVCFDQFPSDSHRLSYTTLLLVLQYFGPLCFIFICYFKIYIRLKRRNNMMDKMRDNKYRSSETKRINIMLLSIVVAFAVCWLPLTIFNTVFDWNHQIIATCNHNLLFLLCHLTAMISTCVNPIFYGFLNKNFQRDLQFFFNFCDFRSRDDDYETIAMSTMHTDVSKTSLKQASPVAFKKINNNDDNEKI
Assay: not given
It is filed as cell membranes, Membrane. Particulars: sk-n-mc.
Turning to `COc1ccc([C@@H]2Sc3ccccc3N(CCN(C)C)C(=O)[C@@H]2OC(C)=O)cc1` [DILTIAZEM], the IC50 entry was “Not Active”.

`NCC(=O)O` [GLYCINE]: the IC50 entry is given as “Not Active”.

As for `O=C1CCc2cc(OCCCCc3nnnn3C3CCCCC3)ccc2N1` [CILOSTAZOL], the IC50 result is “Not Active”.

The next test concerns the target T4, Nitric oxide synthase, inducible (Mus musculus, UniProt P29477).
T4 sequence (P29477 whole entry): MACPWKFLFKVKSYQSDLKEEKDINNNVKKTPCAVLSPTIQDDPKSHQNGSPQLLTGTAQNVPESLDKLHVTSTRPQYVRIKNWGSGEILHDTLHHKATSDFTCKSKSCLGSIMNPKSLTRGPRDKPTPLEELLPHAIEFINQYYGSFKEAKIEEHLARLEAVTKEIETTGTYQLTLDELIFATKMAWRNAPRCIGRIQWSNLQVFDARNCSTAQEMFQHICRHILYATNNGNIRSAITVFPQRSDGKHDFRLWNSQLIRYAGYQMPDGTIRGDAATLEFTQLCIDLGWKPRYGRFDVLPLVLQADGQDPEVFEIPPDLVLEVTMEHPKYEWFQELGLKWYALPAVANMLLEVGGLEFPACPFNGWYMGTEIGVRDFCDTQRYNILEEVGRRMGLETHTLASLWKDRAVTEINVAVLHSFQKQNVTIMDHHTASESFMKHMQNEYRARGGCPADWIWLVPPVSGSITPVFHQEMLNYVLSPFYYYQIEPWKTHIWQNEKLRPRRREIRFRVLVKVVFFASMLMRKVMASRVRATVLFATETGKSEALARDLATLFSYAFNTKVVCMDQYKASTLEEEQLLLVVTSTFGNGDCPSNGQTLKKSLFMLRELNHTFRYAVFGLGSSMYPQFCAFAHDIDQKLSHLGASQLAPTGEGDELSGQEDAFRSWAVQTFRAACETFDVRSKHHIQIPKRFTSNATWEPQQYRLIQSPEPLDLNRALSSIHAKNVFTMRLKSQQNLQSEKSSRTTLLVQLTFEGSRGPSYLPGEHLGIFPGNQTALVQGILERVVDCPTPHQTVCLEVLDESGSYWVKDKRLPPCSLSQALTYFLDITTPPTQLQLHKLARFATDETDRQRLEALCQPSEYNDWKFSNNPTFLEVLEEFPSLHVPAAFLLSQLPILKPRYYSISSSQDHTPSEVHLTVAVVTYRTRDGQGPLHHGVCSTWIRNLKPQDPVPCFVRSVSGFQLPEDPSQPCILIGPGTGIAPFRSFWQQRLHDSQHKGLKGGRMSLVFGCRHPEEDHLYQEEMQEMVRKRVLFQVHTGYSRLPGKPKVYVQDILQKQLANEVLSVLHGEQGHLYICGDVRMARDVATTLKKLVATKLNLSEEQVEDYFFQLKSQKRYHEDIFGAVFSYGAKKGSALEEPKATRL
Assay: not given
Set-up: species or system Escherichia coli.
Settings: not given
As for `COc1ccc([C@@H]2Sc3ccccc3N(CCN(C)C)C(=O)[C@@H]2OC(C)=O)cc1` [DILTIAZEM], the IC50 result was “Not Active”.

Take `NCC(=O)O` [GLYCINE]: the IC50 result is recorded as “Not Active”.

For `O=C1CCc2cc(OCCCCc3nnnn3C3CCCCC3)ccc2N1` [CILOSTAZOL], the IC50 result is “Not Active”.

Tested on in the next test: not listed separately
As to the kind of experiment: DRUGMATRIX: Phorbol Ester radioligand binding (ligand: [3H] PDBu). It is filed as cell membranes, Mus musculus, ICR, Brain, Membrane. Particulars: Not Active = under 50% inhibition at 10 µM.
Consider `COc1ccc([C@@H]2Sc3ccccc3N(CCN(C)C)C(=O)[C@@H]2OC(C)=O)cc1` [DILTIAZEM], for which the IC50 result is reported as “Not Active” and the Ki result is “Not Active”.

As for `NCC(=O)O` [GLYCINE], the IC50 result is recorded as “Not Active” and the Ki result is reported as “Not Active”.

Regarding `O=C1CCc2cc(OCCCCc3nnnn3C3CCCCC3)ccc2N1` [CILOSTAZOL], the IC50 entry is given as “Not Active” and the Ki result was “Not Active”.

The next test addresses cGMP-specific 3',5'-cyclic phosphodiesterase (Homo sapiens, UniProt O76074). Nature of the test: DRUGMATRIX: Phosphodiesterase PDE5 enzyme inhibition (substrate: [3H]cGMP + cGMP). It is filed as tissue-based, Platelet. To be noted: platelet; Not Active = under 50% inhibition at 10 µM.
As to `COc1ccc([C@@H]2Sc3ccccc3N(CCN(C)C)C(=O)[C@@H]2OC(C)=O)cc1` [DILTIAZEM], the IC50 entry is given as “Not Active”.

As to `NCC(=O)O` [GLYCINE], the IC50 result is listed as “Not Active”.

As for `O=C1CCc2cc(OCCCCc3nnnn3C3CCCCC3)ccc2N1` [CILOSTAZOL], the IC50 result was “Not Active”.

The target in a further test is T5, Neutrophil elastase (Homo sapiens, UniProt P08246).
T5 sequence (P08246 whole entry): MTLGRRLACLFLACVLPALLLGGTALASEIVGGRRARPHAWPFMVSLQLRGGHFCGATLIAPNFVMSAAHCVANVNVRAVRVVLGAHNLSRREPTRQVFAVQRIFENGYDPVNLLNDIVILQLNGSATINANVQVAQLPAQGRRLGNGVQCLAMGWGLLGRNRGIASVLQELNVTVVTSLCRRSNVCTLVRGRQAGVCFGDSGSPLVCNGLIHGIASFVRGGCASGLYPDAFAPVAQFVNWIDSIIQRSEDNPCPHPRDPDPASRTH
Assay: not given
Settings: not given
It is filed as tissue-based.
`COc1ccc([C@@H]2Sc3ccccc3N(CCN(C)C)C(=O)[C@@H]2OC(C)=O)cc1` [DILTIAZEM]: the IC50 result was “Not Active”.

As for `NCC(=O)O` [GLYCINE], the IC50 entry is “Not Active”.

Consider `O=C1CCc2cc(OCCCCc3nnnn3C3CCCCC3)ccc2N1` [CILOSTAZOL], for which the IC50 entry is “Not Active”.

The target of a further test is Estrogen receptor beta (Homo sapiens, UniProt Q92731). Note: in other assays of this panel Not Active means under 50% inhibition at 10 µM.
Sequence of Estrogen receptor beta (Q92731 whole entry): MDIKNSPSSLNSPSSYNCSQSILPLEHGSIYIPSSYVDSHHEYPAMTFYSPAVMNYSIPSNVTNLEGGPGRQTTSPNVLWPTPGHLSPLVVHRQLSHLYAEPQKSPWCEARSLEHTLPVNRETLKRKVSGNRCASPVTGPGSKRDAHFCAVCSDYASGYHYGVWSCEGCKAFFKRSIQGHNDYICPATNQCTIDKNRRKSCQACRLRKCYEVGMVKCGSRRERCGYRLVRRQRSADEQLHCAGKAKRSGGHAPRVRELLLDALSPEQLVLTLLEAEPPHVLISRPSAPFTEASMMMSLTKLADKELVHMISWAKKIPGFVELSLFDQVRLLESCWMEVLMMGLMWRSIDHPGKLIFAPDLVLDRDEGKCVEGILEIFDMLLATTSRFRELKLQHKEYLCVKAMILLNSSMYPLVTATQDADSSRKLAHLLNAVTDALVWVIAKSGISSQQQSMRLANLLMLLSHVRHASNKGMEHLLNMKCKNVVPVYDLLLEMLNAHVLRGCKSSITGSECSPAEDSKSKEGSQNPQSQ
Assay: not given
To be noted: sf9.
On to `COc1ccc([C@@H]2Sc3ccccc3N(CCN(C)C)C(=O)[C@@H]2OC(C)=O)cc1` [DILTIAZEM], for which the IC50 result is listed as “Not Active”.

For `NCC(=O)O` [GLYCINE], the IC50 result was “Not Active”.

Take `O=C1CCc2cc(OCCCCc3nnnn3C3CCCCC3)ccc2N1` [CILOSTAZOL]: the IC50 result was “Not Active”.
